pIC50: −log10 of the molar value.

Assay [1] has as its system mGlu5. The assay can be described thus: mGlu5 assays. The assay is classed as cell-based. The following applies: mode of mGlu5 pharmacology (NAM, PAM, Ago-PAM, Part. Antag., Inactive).
Assay [2] addresses T1, mGlu5 (Rattus norvegicus, UniProt P31424). The assay can be described thus: mGlu5 assays. It counts as cell-based. The note with it: NAM IC50 relative to 8.
For assay [3], the system named is mGlu5. The following applies: % partial; cited from earlier work.
For assay [4], the target named is T1, mGlu5. The note with it: phenylethynyl pyrimidine series; cited from earlier work.
T1 sequence (P31424 21-1203): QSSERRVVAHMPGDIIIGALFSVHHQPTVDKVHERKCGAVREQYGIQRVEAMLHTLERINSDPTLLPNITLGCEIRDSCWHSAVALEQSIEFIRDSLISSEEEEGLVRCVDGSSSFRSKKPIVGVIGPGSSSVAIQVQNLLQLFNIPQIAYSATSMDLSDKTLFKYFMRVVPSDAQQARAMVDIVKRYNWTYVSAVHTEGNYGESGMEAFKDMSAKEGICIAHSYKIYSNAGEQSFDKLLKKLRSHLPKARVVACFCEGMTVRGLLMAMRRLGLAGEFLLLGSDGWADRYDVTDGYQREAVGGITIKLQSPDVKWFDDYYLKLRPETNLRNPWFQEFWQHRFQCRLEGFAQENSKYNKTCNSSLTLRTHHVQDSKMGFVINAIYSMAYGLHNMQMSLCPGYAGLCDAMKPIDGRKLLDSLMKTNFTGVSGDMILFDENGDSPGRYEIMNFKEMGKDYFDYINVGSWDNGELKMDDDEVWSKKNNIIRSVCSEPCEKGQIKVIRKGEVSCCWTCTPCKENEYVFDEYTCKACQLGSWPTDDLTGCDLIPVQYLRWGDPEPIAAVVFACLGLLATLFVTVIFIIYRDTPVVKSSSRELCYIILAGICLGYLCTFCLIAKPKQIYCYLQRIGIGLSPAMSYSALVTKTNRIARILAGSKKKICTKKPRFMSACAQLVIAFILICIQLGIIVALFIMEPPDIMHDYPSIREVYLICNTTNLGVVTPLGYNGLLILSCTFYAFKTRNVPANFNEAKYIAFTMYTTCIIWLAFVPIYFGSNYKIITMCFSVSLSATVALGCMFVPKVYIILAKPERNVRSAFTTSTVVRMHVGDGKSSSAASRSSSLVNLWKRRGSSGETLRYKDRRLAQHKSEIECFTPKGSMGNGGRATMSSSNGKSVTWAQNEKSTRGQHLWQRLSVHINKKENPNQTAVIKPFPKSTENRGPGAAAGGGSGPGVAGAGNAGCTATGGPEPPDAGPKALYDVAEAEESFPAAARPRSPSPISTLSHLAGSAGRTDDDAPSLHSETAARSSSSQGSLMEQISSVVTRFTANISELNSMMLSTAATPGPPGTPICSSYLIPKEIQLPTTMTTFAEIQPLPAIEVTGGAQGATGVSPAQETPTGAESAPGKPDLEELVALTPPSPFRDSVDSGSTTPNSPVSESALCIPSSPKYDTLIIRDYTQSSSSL

T1 sequence (P31424 21-1203): as above

Regarding `Cc1cccc(-c2noc([C@H]3CCCCN3C(=O)C3CCCC3)n2)c1` [21c], the Pharmacology result in the assay on mGlu5 [1] was “partial antagonists”.
Still for that read-out and setting: the value for `Cc1cccc(-c2noc([C@H]3CCCCN3C(=O)C3CCCCC3)n2)c1` [21d] was “full non-competitive antagonists (NAMs)”; that for `O=C(C1CC1)N1CCCC[C@@H]1c1nc(-c2cccc(F)c2)no1` [22a] was “ago-PAMs”.
Take `O=C(C1CCC1)N1CCCC[C@@H]1c1nc(-c2cccc(F)c2)no1` [22b/20e]: the Pharmacology entry in the assay on mGlu5 [1] (listed as 22b) was “pure PAM activity”.
`O=C(C1CCCC1)N1CCCC[C@@H]1c1nc(-c2cccc(F)c2)no1` [22c]: the Pharmacology entry in the assay on mGlu5 [1] is “ago-PAMs”.
Same read-out and setting: the value for `O=C(C1CCCCC1)N1CCCC[C@@H]1c1nc(-c2cccc(F)c2)no1` [22d] was “pure PAM activity”; that for `O=C(C1CCC1)N1CCCC1c1nc(-c2cccc(F)c2)no1` (stereo not shown) [23a] was “low micromolar PAMs”.
Regarding `O=C(C1CCC1)N1CCCC1c1nc(-c2ccc(F)cc2)no1` (stereo not shown) [23b], the Pharmacology result in the assay on mGlu5 [1] is recorded as “low micromolar PAMs”.
On the same count and under the same terms, the value for `O=C(C1CCC1)N1CCC[C@@H]1c1nc(-c2cccc(F)c2)no1` [(R)-23a] was “potent mGlu5 PAM”.
Consider `O=C(C1CCC1)N1CCC[C@H](c2nc(-c3cccc(Cl)c3)no2)C1` [(S)-15e], for which, in the assay with mGlu5 [2], the “increase in potency over 8” value is recorded as ~ 41 fold.
`O=C(C1CCC1)N1CCC[C@H]1c1nc(-c2cccc(F)c2)no1` [(S)-23a]: the Pharmacology entry in the assay on mGlu5 [1] was “very weak PAM”.
For the compound `C(#Cc1cncnc1)c1ccccc1` [compound 2], in the assay on mGlu5 [3], the partial antagonism was 71%.
What is called pIC50 is −log10 of the IC50, conventionally taken in molar units. Turning to `Cc1cccc(C#Cc2cncnc2)c1` [compound 3], the pIC50 at mGlu5 [4] is 8.12.

Source of the values: publication PMC3179182 (Bioorganic & medicinal chemistry letters, 2010).
